Like-named read-outs stand apart in the source and are kept apart here.
Tests used:
[1] = CellTox Green Cytotoxicity Assay in uninfected CRFK cells; type: cell-based; settings: cat (feline), 72 hour incubation
Description: Compound 1 was screened for cytotoxicity in uninfected CRFK cells using a commercially available CellTox Green Cytotoxicity Assay (Promega). The assayed was performed in a 96 well place formate using serial dilution of Compound 1 in sextuplicate. Compound concentration associated with 50% cytotoxicity (CC50) following 72 hour incubation was calculated by regression analysis.

feline coronavirus = assay: In vitro antiviral assay: virus-induced cytopathic effect in CRFK cells (crystal violet staining); type: cell-based
Description: Compound 1 was screened for activity against feline Coronaviruses in an in vitro assay. Serial dilutions of Compound 1 were mixed with 2.5×10^4 copies of feline coronavirus and added in sextuplicate to 96 well plates with pre-seeded CRFK cells. The plates were incubated for 72 hours followed by a staining of the cell culture monolayers with crystal violet. The level of virus-induced cytopathic effect was quantified visually and using a plate reader. Positive control wells comprised the virus without Compound 1. Negative control wells lacked both virus and Compound 1. The EC50 was calculated by regression analysis.

In the case of `N#C[C@@]1(c2ccc3c(N)ncnn23)O[C@H](CO)[C@@H](O)[C@H]1O` [Compound 1, (2R,3R,4S,5R)-2-(4-aminopyrrolo[2,1-f][1,2,4]triazin-7-yl)-3,4-dihydroxy-5-(hydroxymethyl)tetrahydrofuran-2-carbonitrile], the CC50 at 72 h [1] is reported as > 100 µM, the EC50 (feline coronavirus; Alphacoronavirus 1, CRFK, read-out: EC50 (FIG. 1 legend)) is reported as 750 nM and the EC50 (feline coronavirus; Alphacoronavirus 1, feline coronavirus in CRFK cells, 72 hours incubation, regression analysis (Table 1), read-out: EC50) is reported as 770 nM. For the same compound, the “inhibition of feline coronavirus” value (feline coronavirus; CRFK cells, at 3, 2 and 1 μM, FIG. 1) was ~100%.

— patent publication US11260070B2, “Methods of treating feline coronavirus infections” (GILEAD SCIENCES, INC., priority 2017, dated 2022)
